Assay results from patent US20240197760A1, “ACTIVATORS OF INTEGRATED STRESS RESPONSE PATHWAY FOR PROTECTION AGAINST FERROPTOSIS” (Burke Neurological Institute, priority 2021, published 2024).
“Also recorded” adds a separate entry of the source.

What was measured:
[1] = test system: ICH mice; experiment: Collagenase-induced intracerebral hemorrhage (ICH), tape removal test; assay type: in vivo, mouse; conditions: 10 mg/Kg i.p. from 24 h after collagenase, every day for 3 weeks; from day 7 onwards (days 7 and 21 vs saline)
Method: To assess the effect of 2-DG on the Bdnf gene expression, mice were injected with either saline or 2-DG (10 mg/Kg) intraperitoneally for 6 h and then mice were euthanized properly, and hippocampi were dissected out from mice brain. In order to assess functional improvement with 2-DG treatment after ischemic stroke, mice were injected with 2-DG (10 mg/Kg) intraperitoneally 24 h after induction of the stroke and then every day for four weeks. For assessing functional improvement with 2-DG treatment after hemorrhagic stroke, mice were injected with 2-DG (10 mg/Kg) intraperitoneally 24 h after induction of the stroke and then every day for three weeks. ICH was induced as described before (Karuppagounder et al., 2016). Briefly, male C57BL/6 mice (8 to 10 weeks of age; Charles River) were anesthetized with isoflurane (2 to 5%) and placed on a stereotaxic frame. During the procedure, the animal's body temperature was maintained at 37° ° C. with a homeothermic blanket. […] of collagenase (0.075 IU; Sigma) was infused into the right striatum at a flow rate of […] with a nanomite syringe pump (Harvard Apparatus) and a Hamilton syringe. […] The time from which the tape was applied to when the mouse successfully removed it was recorded for each paw. […]

[2] = test system: ATF4; experiment: In vivo bioluminescence imaging of 5′UTR ATF4 luciferase reporter in mouse brain; conditions: 10 mg/Kg intraperitoneally for 4 h
[3] = test system: ATF4; experiment: ATF4 chromatin immunoprecipitation sequencing in primary neurons; assay type: cell-based, mouse; conditions: 10 mM, 6 h
Method: ChIP-seq was performed according to the ChIPmentation protocol with minor modifications. In brief, 40 million primary neurons were used for each condition. Cells were fixed in methanol free formaldehyde (1% final concentration) for 10 min at room temperature with slow rotation to allow the cross-linking of chromatin proteins and DNA. Cross-linking was stopped by incubation with 0.125 M glycine for 5 min at room temperature. The cells were washed twice with ice-cold phosphate-buffered saline (PBS) and 2 ml of cell scrapping solution was added cell were scrapped and collected in respective tubes. Tubes with cells were centrifuged at 2800 rpm for 10 min at 4° C. and supernatant was aspirated out. Cell pellets left in the tube were resuspended in 300 μl of 0.25% SDS sonication buffer (10 mM Tris-HCl [pH 8.0], 2 mM EDTA, 0.25% SDS, and protease inhibitor cocktail). The lysates were transferred to 1.5 ml TPX microtubes for sonication (Diagenode, Catalog number: 20190430) and sonicated by Biorupter sonication device (Diagenode) to shear genomic DNA into 200-600 bp fragments. The lysates were centrifuged to remove debris and were then diluted 1:1.5 in equilibration buffer (10 mM Tris-HCl [pH 8.0], 1 mM EDTA, 1.67% Triton X-100, 0.17% sodium deoxycholate, 233 mM NaCl, and protease inhibitor cocktail). […]

[4] = indicated by FDG PET studies; cited from earlier work

Compound: OC[C@H]1OC(O)C[C@@H](O)[C@@H]1O (stereo partly drawn) [2-DG, (4R,5S,6R)-6-(hydroxymethyl)oxane-2,4,5-triol]
- tape removal test after hemorrhagic stroke [1]: significant improvement; also recorded: significant difference
- ATF4 translation in the mouse brain (luciferase activity) [2]: significant increase
- ATF4 binding at Bdnf (ChIP-Seq) [3]: selective enrichment of ATF4 close to the transcription start site of Bdnf
- ATF4 binding to other plasticity genes (ChIP-Seq) [3]: enhanced binding of ATF4 to several plasticity genes
- crossing of the blood brain barrier [4]: can easily cross the blood brain barrier
